# Where two headings read alike, the source gives them in different places. Marks after values point to notes of the source that are not given here.
# Columns and labels:
# [1] = system: proteinase 3 (PR3); assay: Active PR3 in blood (white blood cell pellets) of adults with CF; assay type: in vivo, human; conditions: for PR3, median % reduction relative to baseline: Blood, day 29
# Method: Blood PD samples were collected at screening; predose on days 1, 2, 14, 28, and 29; and at the follow-up visit (day 35). The samples were analyzed at an external service provider to determine the concentrations of active NE, PR3, and CatG in white blood cell pellets using validated enzymatic methods with quantification limits of 87.9 ng/mL for NE and PR3 and 70.3 ng/mL for CatG. The fit-for-purpose methods details were published internally and stored within Insmed’s document repository.
# If a participant experienced an intercurrent event, defined as use of antibiotics during an acute event that could influence NSP levels, the data were not included in the PD analysis. In assessing treatment-emergent adverse events (TEAEs), the “while-on-treatment” strategy was implemented, which encompassed the 28-day period following the final dose of study drug. With this strategy, data collected prior to the occurrence of the intercurrent event, that is, to discontinuation of brensocatib, were included in the analysis.
# [2] = Plasma pharmacokinetics of brensocatib in adults with CF, once-daily oral dosing for 28 days (noncompartmental analysis); assay type: in vivo, human; conditions: for Ctrough / CL/F / Cmax / Rac(AUC0–24), accumulation ratio based on AUC0–24 / Rac(Cmax), accumulation ratio based on Cmax / AUC(0-t): mean (CV%); for least squares geometric mean ratio (LSGMR) in AUC0–24 (90% CI) / least squares geometric mean ratio (LSGMR) in Cmax (90% CI): day 28; for AUC0–24 / D, geometric mean / AUClast / D, geometric mean / Cmax / D, geometric mean: dose-normalized
# Method: This was a phase IIa, single-blind, randomized, placebo-controlled trial with a parallel-group, multiple-dose design aimed at evaluating the PK, PD, safety, and tolerability of brensocatib in adults with CF (NCT05090904).
# Participants were assigned to receive a once-daily dose of brensocatib (10 mg, 25 mg, or 40 mg) or placebo for 28 days.
# Plasma PK samples were collected on days 1 (at predose and 0.5, 1, 2, 4, 6, 8, and 24 h postdose), 14 (at predose and 2 h postdose), and 28 (at predose and 0.5, 1, 2, 4, 6, 8, 24, and 168 h postdose). The concentration of brensocatib in the plasma samples was analyzed using a validated liquid chromatography with tandem mass spectrometry method at an external service provider with a quantification range of 0.25–150 ng/mL. The overall intra- and inter-batch precision and accuracy were −2.7 to 2.0% and −1.8 to 0.8%, respectively. The long-term stability was established in human plasma for 346 days at −70 °C. The validation method details were published internally and stored within Insmed’s internal document repository.
# Descriptive statistics for continuous variables were calculated. Categorical variables were summarized by counts and by percentage of participants in the corresponding categories. No formal hypothesis was tested. Changes from baseline values were calculated and presented for both safety and efficacy data at each visit, including the percent change from baseline. PK parameters for brensocatib were assessed using noncompartmental analysis via Phoenix® WinNonlin® version 8.2 or later. SAS version 9.4 or higher was employed to prepare PK outputs.
# Analysis of dose dependency for brensocatib Cmax, AUC0–24, and area under the concentration–time curve from time 0 to last measurable concentration (AUClast) after single-dose administration and at steady state (day 28) were performed using a power law model. Dose normalization of Cmax, AUC0–24, and AUClast was performed only when a linear and dose-dependent trend was observed.
# [3] = Day 1, with CFTR modulator, n 17
# [4] = Day 1, without CFTR modulator, n 7
# [5] = Day 28, with CFTR modulator, n 16
# [6] = Day 28, without CFTR modulator, n 6
smiles,measurement,setting,value
Cn1c(=O)oc2ccc(-c3ccc(C[C@@H](C#N)NC(=O)[C@@H]4CNCCCO4)cc3)cc21 [Brensocatib],"PR3, median % reduction relative to baseline","[1]; 10 mg QD, n = 6",17.3 (n = 6) %
same,"PR3, median % reduction relative to baseline","[1]; 25 mg QD, n = 7",40.8 (n = 7) %
same,"PR3, median % reduction relative to baseline","[1]; 40 mg QD, n = 7",55.0 (n = 7) %
same,median percent reduction of PR3 activity in blood,[1]; over the dose range of 10–40 mg QD,17–55%
same,Ctrough,"[2]; 10 mg QD, Day 1 column, presented for day 2, n = 8",46.3 (92.2) ng/mL
same,CL/F,"[2]; 10 mg QD, Day 28, n = 8",9.91 (28.6) L/h
same,Cmax,"[2]; 10 mg QD, Day 28, n = 8",90.1 (31.0) ng/mL
same,Ctrough,"[2]; 10 mg QD, Day 28, n = 8",27.2 (66.1) ng/mL
same,"Rac(AUC0–24), accumulation ratio based on AUC0–24","[2]; 10 mg QD, Day 28, n = 8",1.38 (32.2)
same,"Rac(Cmax), accumulation ratio based on Cmax","[2]; 10 mg QD, Day 28, n = 8",1.42 (22.6)
same,Cmax,"[2]; 25 mg QD, Day 1, n = 8",140 (24.1) ng/mL
same,Ctrough,"[2]; 25 mg QD, Day 1 column, presented for day 2, n = 8",39.3 (30.4) ng/mL
same,CL/F,"[2]; 25 mg QD, Day 28, n = 7",7.17 (30.1) L/h
same,"Rac(AUC0–24), accumulation ratio based on AUC0–24","[2]; 25 mg QD, Day 28, n = 7",2.26 (29.2)
same,"Rac(Cmax), accumulation ratio based on Cmax","[2]; 25 mg QD, Day 28, n = 7",1.72 (38.9)
same,Ctrough,"[2]; 25 mg QD, Day 28, n = 8",104 (43.6)^d ng/mL
same,Ctrough,"[2]; 40 mg QD, Day 1 column, presented for day 2, n = 8",108 (88.6) ng/mL
same,CL/F,"[2]; 40 mg QD, Day 28, n = 8",7.20 (42.8) L/h
same,Ctrough,"[2]; 40 mg QD, Day 28, n = 8",162 (41.8) ng/mL
same,"Rac(AUC0–24), accumulation ratio based on AUC0–24","[2]; 40 mg QD, Day 28, n = 8",1.81 (37.4)
same,"Rac(Cmax), accumulation ratio based on Cmax","[2]; 40 mg QD, Day 28, n = 8",1.43 (25.5)
same,least squares geometric mean ratio (LSGMR) in AUC0–24 (90% CI),[2]; 40-mg dose compared to 10 mg,1.42 (1.04–1.92)
same,least squares geometric mean ratio (LSGMR) in Cmax (90% CI),[2]; 40-mg dose compared to 10 mg,1.36 (1.02–1.82)
same,least squares geometric mean ratio (LSGMR) in AUC0–24 (90% CI),[2]; 40-mg dose compared to 25 mg,1.02 (0.74–1.41)
same,least squares geometric mean ratio (LSGMR) in Cmax (90% CI),[2]; 40-mg dose compared to 25 mg,1.25 (0.92–1.69)
same,"AUClast / D, ratio with/without CFTR modulator (90% CI)","[2]; Day 1, geometric mean ratio",1.21 (0.91–1.60)
same,"AUC0–24 / D, geometric mean",[2]; [3],80.7 ng·h/mL/mg
same,"AUClast / D, geometric mean",[2]; [3],80.7 ng·h/mL/mg
same,"Cmax / D, geometric mean",[2]; [3],6.7 ng/mL/mg
same,"AUC0–24 / D, geometric mean",[2]; [4],66.8 ng·h/mL/mg
same,"AUClast / D, geometric mean",[2]; [4],66.8 ng·h/mL/mg
same,"Cmax / D, geometric mean",[2]; [4],6.3 ng/mL/mg
same,"AUC0–24 / D, ratio with/without CFTR modulator (90% CI)","[2]; Day 28, geometric mean ratio",1.12 (0.82–1.52)
same,"AUC0–24 / D, geometric mean",[2]; [5],134.2 ng·h/mL/mg
same,"AUClast / D, geometric mean",[2]; [5],295.1 ng·h/mL/mg
same,"Cmax / D, geometric mean","[2]; Day 28, with CFTR modulator, n = 17",10.2^a ng/mL/mg
same,"AUC0–24 / D, geometric mean",[2]; [6],120.2 ng·h/mL/mg
same,"AUClast / D, geometric mean",[2]; [6],271.3 ng·h/mL/mg
same,"Cmax / D, geometric mean",[2]; [6],8.8 ng/mL/mg
same,"inter-participant variability (coefficient of variation) in Cmax, AUC0–24 and t1/2",[2]; generally within,15–50%
same,AUC(0-t),"[2]; human, plasma, oral, 10 mg, 10 mg QD, Day 1, n = 8, read-out: AUC0–24",0.879 µg·h/mL
same,AUC(0-t),"[2]; human, plasma, oral, 10 mg, 10 mg QD, Day 1, n = 8, read-out: AUClast",0.879 µg·h/mL
same,Cmax,"[2]; human, plasma, oral, 10 mg, 10 mg QD, Day 1, n = 8, with/without CFTR modulators, read-out: Cmax",0.0673 µg/mL
same,AUC(0-t),"[2]; human, plasma, oral, 10 mg, 10 mg QD, Day 28, n = 8, read-out: AUC0–24",1.1 µg·h/mL

# From PMC12479633, “A Phase IIa, Single-Blind, Placebo-Controlled, Parallel-Group Study to Assess Safety, Tolerability, and Pharmacokinetics/Pharmacodynamics of Brensocatib in Adults with Cystic Fibrosis” (Clinical Pharmacokinetics, 2025)
